The record followed here is ChEMBL document CHEMBL1921725, “Synthesis and SAR development of novel P2X7 receptor antagonists for the treatment of pain: part 2” (Bioorg Med Chem Lett, 2011).

Molecules are shown by their SMILES. Active and inactive are the calls of the source. The calls are words filed in the database; no cut-off is given here.

Data set [1] is described as follows: AUC in rapid rat model at 10 mg/kg, po. Type of data set: ADME, organism-based. Also noted: dose 10 mg/kg, route oral. Particulars: in vivo.
Data set [2] deals with T1, P2X purinoceptor 7 (Homo sapiens, UniProt Q99572).
T1 sequence (Q99572 whole entry): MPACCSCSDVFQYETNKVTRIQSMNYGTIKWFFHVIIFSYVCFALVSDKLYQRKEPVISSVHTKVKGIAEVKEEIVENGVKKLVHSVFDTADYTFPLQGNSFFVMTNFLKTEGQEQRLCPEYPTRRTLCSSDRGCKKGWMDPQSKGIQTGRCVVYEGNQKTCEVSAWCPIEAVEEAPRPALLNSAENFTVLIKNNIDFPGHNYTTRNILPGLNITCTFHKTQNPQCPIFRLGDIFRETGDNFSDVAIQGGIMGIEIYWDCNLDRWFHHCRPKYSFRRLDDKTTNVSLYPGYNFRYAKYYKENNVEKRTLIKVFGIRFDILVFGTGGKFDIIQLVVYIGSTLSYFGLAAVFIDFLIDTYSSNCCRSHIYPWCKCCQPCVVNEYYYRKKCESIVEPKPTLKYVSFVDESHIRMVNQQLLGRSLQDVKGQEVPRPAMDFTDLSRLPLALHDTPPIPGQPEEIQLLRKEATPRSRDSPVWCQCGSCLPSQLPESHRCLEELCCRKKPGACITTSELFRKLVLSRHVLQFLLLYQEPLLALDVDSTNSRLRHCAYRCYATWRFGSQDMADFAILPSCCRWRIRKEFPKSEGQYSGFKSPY
The data set can be described thus: Antagonist activity at P2X7 receptor in LPS-stimulated human whole blood assessed as inhibition of ATP-induced IL1-beta production treated 30 mins before LPS challenge measured after 3 hrs by ELISA. Type of data set: functional, tissue-based. Background: ELISA stands for enzyme-linked immunosorbent assay.

A short description of data set [3]: Plasma concentration in rapid rat model plasma at 10 mg/kg, po after 6 hrs. Type of data set: ADME, organism-based. Also noted: dose 10 mg/kg, route oral.
Data set [4] has as its system Rattus norvegicus. The data set can be described thus: Analgesic activity in rat streptozocin-induced diabetic neuropathy model at 10 mg/kg, po after 4 hrs relative to gabapentin. Type of data set: functional, organism-based. Details: dose 10 mg/kg.
In data set [5] the test system is Rattus norvegicus. The data set can be described thus: Analgesic activity in rat chronic constriction injury neuroinflammatory pain model at 60 mg/kg, po after 4 hrs relative to gabapentin. Details: dose 60 mg/kg. Type of data set: functional, organism-based.
In data set [6] the target is Sodium-dependent noradrenaline transporter (Homo sapiens) (UniProt P23975). The data set can be described thus: Inhibition of norepinephrine transporter at 10 uM.
The test system of data set [7] is Rattus norvegicus. The experiment in a line: Analgesic activity in rat spinal nerve ligation neuropathic pain model at 10 to 30 mg/kg, po after 4 hrs relative to pregabalin. Type of data set: functional, organism-based.
Data set [8] has as its target T2, P2X purinoceptor 7 (Rattus norvegicus, UniProt Q64663).
T2 sequence (Q64663 whole entry): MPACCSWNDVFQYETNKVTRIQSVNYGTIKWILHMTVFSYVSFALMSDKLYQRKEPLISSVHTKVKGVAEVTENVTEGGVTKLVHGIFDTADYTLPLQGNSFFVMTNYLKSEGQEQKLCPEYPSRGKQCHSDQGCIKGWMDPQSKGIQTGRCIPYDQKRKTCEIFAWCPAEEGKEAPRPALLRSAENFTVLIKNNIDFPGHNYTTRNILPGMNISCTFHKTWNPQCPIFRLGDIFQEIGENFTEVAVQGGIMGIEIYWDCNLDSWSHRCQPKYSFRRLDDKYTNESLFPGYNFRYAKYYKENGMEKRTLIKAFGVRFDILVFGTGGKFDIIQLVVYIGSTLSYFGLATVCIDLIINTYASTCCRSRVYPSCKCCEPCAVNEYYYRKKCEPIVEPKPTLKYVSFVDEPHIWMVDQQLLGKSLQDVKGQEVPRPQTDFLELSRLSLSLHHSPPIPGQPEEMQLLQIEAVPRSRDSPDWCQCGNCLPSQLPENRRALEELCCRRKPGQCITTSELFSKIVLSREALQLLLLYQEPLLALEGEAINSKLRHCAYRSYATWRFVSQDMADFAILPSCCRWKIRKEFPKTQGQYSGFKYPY
The data set can be described thus: Antagonist activity at P2X7 receptor in rat whole blood. Type of data set: functional, tissue-based.

A short description of data set [9]: Inhibition of sodium channel site 2 at 10 uM.
The subject of data set [10] is Rattus norvegicus. The experiment in a line: Analgesic activity in rat streptozocin-induced diabetic neuropathy model at 10 mg/kg, po after 4 hrs. Type of data set: functional, organism-based. Also noted: dose 10 mg/kg.
A short description of data set [11]: Inhibition of chloride channel at 10 uM.
In data set [12] the test system is Rattus norvegicus. The data set can be described thus: Analgesic activity in rat chronic constriction injury neuroinflammatory pain model at 1 to 3 mg/kg, po after 4 hrs. Type of data set: functional, organism-based.
For data set [13], the target named is T3, P2X purinoceptor 4 (Homo sapiens) (UniProt Q99571).
T3 sequence (whole entry): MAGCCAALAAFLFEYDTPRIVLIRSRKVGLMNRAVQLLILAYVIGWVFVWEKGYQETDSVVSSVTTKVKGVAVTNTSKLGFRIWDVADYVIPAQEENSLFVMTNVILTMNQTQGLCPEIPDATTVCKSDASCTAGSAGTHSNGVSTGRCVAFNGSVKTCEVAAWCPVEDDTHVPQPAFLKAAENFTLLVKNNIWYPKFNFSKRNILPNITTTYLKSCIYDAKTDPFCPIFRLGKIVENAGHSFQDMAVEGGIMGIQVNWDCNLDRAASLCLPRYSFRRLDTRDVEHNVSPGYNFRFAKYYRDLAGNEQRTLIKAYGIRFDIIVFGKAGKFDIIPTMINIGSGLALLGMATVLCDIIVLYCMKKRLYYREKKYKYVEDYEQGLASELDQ
The experiment in a line: Inhibition of P2X4 receptor at 10 uM.

Data set [14] has as its system Rattus norvegicus. The data set can be described thus: Antihyperalgesic activity in rat mono-iodacetate-induced hyperalgesia model at 50 mg/kg, po after 4 hrs relative to naproxen. Type of data set: functional, organism-based. Also noted: dose 50 mg/kg.
A short description of data set [15]: Inhibition of L-type calcium channel diltiazem binding site at 10 uM.
The subject of data set [16] is Rattus norvegicus. The experiment in a line: Antihyperalgesic activity in rat mono-iodacetate-induced hyperalgesia model at 1 to 3 mg/kg, po after 4 hrs. Type of data set: functional, organism-based.

Sequence of Sodium-dependent noradrenaline transporter (Homo sapiens) (P23975 whole entry): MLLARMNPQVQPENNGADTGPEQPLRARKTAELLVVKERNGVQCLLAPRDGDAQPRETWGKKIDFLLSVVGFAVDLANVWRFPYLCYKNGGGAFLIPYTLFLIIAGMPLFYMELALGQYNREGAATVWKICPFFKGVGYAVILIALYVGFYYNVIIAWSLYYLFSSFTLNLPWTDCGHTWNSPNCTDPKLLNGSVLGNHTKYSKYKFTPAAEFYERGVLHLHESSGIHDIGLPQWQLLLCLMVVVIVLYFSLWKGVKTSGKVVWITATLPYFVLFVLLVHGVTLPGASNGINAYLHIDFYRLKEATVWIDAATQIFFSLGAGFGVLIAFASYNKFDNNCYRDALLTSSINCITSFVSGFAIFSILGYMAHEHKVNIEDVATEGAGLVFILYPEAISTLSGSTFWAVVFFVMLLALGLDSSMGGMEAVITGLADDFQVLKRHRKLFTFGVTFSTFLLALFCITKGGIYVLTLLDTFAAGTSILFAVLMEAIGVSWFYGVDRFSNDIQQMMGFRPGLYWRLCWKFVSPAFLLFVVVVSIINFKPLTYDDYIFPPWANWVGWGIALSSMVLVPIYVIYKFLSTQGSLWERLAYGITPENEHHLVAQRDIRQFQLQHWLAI

One may read the AUC as concentration integrated over time. The IC50 is the concentration that gives 50% inhibition. Consider `CCN1C(=O)c2nc(-c3ccc(-c4ccccc4)nc3)n(Cc3ccc(F)c(F)c3)c2N2CC(C)(C)N=C12`, for which the AUC in data set [1] was determined as 13.7 µM·h. The IC50 at P2X purinoceptor 7 [2] came to 24 nM. This molecule had a concentration at 6 h in [3] of 2640 nM.
For `CCN1C(=O)c2nc(-c3ccc(-c4ccccc4)cc3)n(Cc3ccc(F)c(F)c3)c2N2CCC(C)(C)N=C12`, the IC50 at P2X purinoceptor 7 [2] was 108 nM.
Take `CCN1C(=O)c2nc(-c3ccc(-c4ccccc4)cc3)n(Cc3cc(F)cc(F)c3)c2N2C[C@@H](C(C)C)N=C12`: in [1], the AUC came to 1.11 µM·h. In addition, at P2X purinoceptor 7 [2], the IC50 was found to be 107 nM. In [3], this molecule returned a concentration at 6 h of 93 nM.
For the molecule `CCN1C(=O)c2nc(-c3ccc(-c4ccccc4)cc3)n(Cc3cc(F)cc(F)c3)c2N2CC(C)(C)N=C12`, the concentration for half-maximal inhibition (IC50) on P2X purinoceptor 7 [2] amounted to 91 nM.
In the case of `CCN1C(=O)c2nc(-c3ccc(-c4ccc(C)cc4)nc3)n(Cc3ccc(F)c(F)c3)c2N2CC(C)(C)N=C12`, the IC50 on P2X purinoceptor 7 [2] worked out at 39 nM.
`CCN1C(=O)c2nc(-c3ccc(-c4cccc(C)c4)nc3)n(Cc3ccc(F)c(F)c3)c2N2CC(C)(C)N=C12` had an AUC in [1] of 0.231 µM·h. For the same molecule, on P2X purinoceptor 7 [2], the concentration for half-maximal inhibition (IC50) stood at 25 nM.
With `CCN1C(=O)c2nc(-c3ccc(-c4ccccc4OC)nc3)n(Cc3ccc(F)c(F)c3)c2N2CC(C)(C)N=C12`, the area under the curve (AUC) in data set [1] turned out to be 1.62 µM·h. Besides, the IC50 on P2X purinoceptor 7 [2] was determined as 101 nM. In data set [3], this molecule returned a concentration at 6 h of 224 nM.
In the same order, the values of `CCN1C(=O)c2nc(-c3ccc(-c4ccc(F)cc4)nc3)n(Cc3ccc(F)c(F)c3)c2N2CC(C)(C)N=C12` are 3.56 µM·h, 45 nM and 897 nM.
`CCN1C(=O)c2nc(-c3ccc(-c4ccccc4)cc3)n(Cc3cc(F)ccc3F)c2N2C[C@@H](C(C)C)N=C12`: on P2X purinoceptor 7 [2], the IC50 turned out to be 1040 nM.
The same measure, in the same setting: with `CCN1C(=O)c2nc(-c3ccc(-c4ccccc4)cc3)n(Cc3ccc(F)cc3)c2N2C[C@@H](C(C)C)N=C12` the figure was 237 nM; with `CCN1C(=O)c2nc(-c3ccc(-c4ccc(OC(F)(F)F)cc4)nc3)n(Cc3ccc(F)c(F)c3)c2N2CC(C)(C)N=C12`, 1940 nM; with `CCN1C(=O)c2nc(-c3ccc(-c4cccc(OC(F)(F)F)c4)nc3)n(Cc3ccc(F)c(F)c3)c2N2CC(C)(C)N=C12`, 110 nM.
In data set [1], `CCN1C(=O)c2nc(-c3ccc(-c4cccc(F)c4)nc3)n(Cc3ccc(F)c(F)c3)c2N2CC(C)(C)N=C12` yielded an exposure (AUC) of 3.56 µM·h. Further, on P2X purinoceptor 7 [2], the IC50 is 28 nM. In [3], this molecule returned a concentration at 6 h of 897 nM.
As to `CCN1C(=O)c2nc(-c3ccc(-c4ccccc4)cc3)n(Cc3ccccc3F)c2N2C[C@@H](C(C)C)N=C12`, the IC50 on P2X purinoceptor 7 [2] turned out to be 937 nM.
In the case of `CCN1C(=O)c2nc(-c3ccc(-c4ccccc4)cc3)n(Cc3ccc(F)cc3F)c2N2CC(C)(C)N=C12`, the IC50 on P2X purinoceptor 7 [2] stood at 700 nM.
Still for that read-out and setting: with `CCN1C(=O)c2nc(-c3ccc(-c4ccccc4)cc3)n(Cc3cccc(F)c3F)c2N2C[C@@H](C(C)C)N=C12` the figure was 870 nM.
`CCN1C(=O)c2nc(-c3ccc(-c4ccccc4F)nc3)n(Cc3ccc(F)c(F)c3)c2N2CC(C)(C)N=C12` came in with an AUC in data set [1] of 2.71 µM·h. Moreover, at P2X purinoceptor 7 [2], the half-maximal inhibitory concentration (IC50) worked out at 52 nM. This molecule also registered a concentration at 6 h in data set [3] of 537 nM.
The matching figures for `CCN1C(=O)c2nc(-c3ccc(-c4ccc(F)cc4F)nc3)n(Cc3ccc(F)c(F)c3)c2N2CC(C)(C)N=C12`: 4.14 µM·h, 95 nM and 537 nM.
Regarding `CCN1C(=O)c2nc(-c3ccc(-c4ccccc4)cc3)n(Cc3ccc(F)cc3)c2N2CC(C)(C)N=C12`, the IC50 on P2X purinoceptor 7 [2] is 276 nM.
For the molecule `CCN1C(=O)c2nc(-c3ccc(-c4ccccc4)cc3)n(Cc3ccc(F)c(F)c3)c2N2CC3(CCCCC3)N=C12`, the half-inhibitory concentration (IC50) on P2X purinoceptor 7 [2] came to 388 nM.
As for `CCN1C(=O)c2nc(-c3ccc(-c4ccc(C(F)(F)F)cc4)nc3)n(Cc3ccc(F)c(F)c3)c2N2CC(C)(C)N=C12`, in [1], the AUC was 5.68 µM·h. Besides, the concentration for half-maximal inhibition (IC50) on P2X purinoceptor 7 [2] turned out to be 137 nM. The concentration at 6 h in data set [3] turned out to be 1570 nM.
In the same order, the values of `CCN1C(=O)c2nc(-c3ccc(-c4cc(F)cc(F)c4)nc3)n(Cc3ccc(F)c(F)c3)c2N2CC(C)(C)N=C12` are 7.54 µM·h, 55 nM and 1260 nM.
As to `CCN1C(=O)c2nc(-c3ccc(-c4ccccc4)cc3)n(Cc3cccc(F)c3)c2N2C[C@@H](C(C)C)N=C12`, at P2X purinoceptor 7 [2], the IC50 stood at 269 nM.
In the case of `CCN1C(=O)c2nc(-c3ccc(-c4ccccc4)cc3)n(Cc3ccc(F)c(F)c3)c2N2C[C@@H](C(C)C)N=C12`, in data set [1], the AUC turned out to be 3.76 µM·h. The IC50 at P2X purinoceptor 7 [2] stood at 178 nM. The concentration at 6 h in data set [3] stood at 392 nM.
In general, inhibition refers to the percentage by which the read-out fell short of the control. For the molecule `CCN1C(=O)c2nc(-c3ccc(-c4ccccc4)cc3)n(Cc3ccc(F)c(F)c3)c2N2CC(C)(C)N=C12`, the result in the data set with Rattus norvegicus [4], in the data set with Rattus norvegicus [5], with Rattus norvegicus [7], in the data set on Rattus norvegicus [10], with Rattus norvegicus [12] and with Rattus norvegicus [14] was Active. The result with Rattus norvegicus [16] was Active. In addition, the inhibition in [6] is greater than 80%; in [9], greater than 80%; in [11], greater than 80%; in [13] it was 55%; in data set [15], greater than 80%. Further, the IC50 was found to be 121 nM at P2X purinoceptor 7 [8] and 85 nM at P2X purinoceptor 7 [2]. This molecule had an AUC in data set [1] of 6.86 µM·h. In [3], the concentration at 6 h was 1370 nM.
As for `CCN1C(=O)c2nc(-c3ccc(-c4cccc(C(F)(F)F)c4)nc3)n(Cc3ccc(F)c(F)c3)c2N2CC(C)(C)N=C12`, the AUC in data set [1] worked out at 1.84 µM·h. The IC50 on P2X purinoceptor 7 [2] was found to be 104 nM. In data set [3], this molecule yielded a concentration at 6 h of 395 nM.
Consider `CCN1C(=O)c2nc(-c3ccc(-c4ccc(OC)cc4)nc3)n(Cc3ccc(F)c(F)c3)c2N2CC(C)(C)N=C12`, for which the concentration for half-maximal inhibition (IC50) at P2X purinoceptor 7 [2] came to 50 nM.
The same measure, in the same setting: with `CCN1C(=O)c2nc(-c3ccc(-c4ccccc4)cc3)n(Cc3ccc(F)cc3F)c2N2C[C@@H](C(C)C)N=C12` the figure was 845 nM.
